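Assay format: 96-well plates, 48-hour exposure. GI50 = concentration required for 50% inhibition of growth.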 Active and inactive are the calls of the source. Rule as the data show it: active = GI50 up to about 1.1 µM and inactive = higher.
Columns and labels:
Assay in all cases: DTP human tumour cell line panel, 48 h
[1] = test system: A498
[2] = test system: HOP-62
[3] = test system: HT-29
[4] = test system: MDA-N
[5] = test system: SF-268
[6] = test system: CAKI-1
[7] = test system: MDA-MB-435
[8] = test system: SF-539
[9] = test system: UACC-257
[10] = test system: SK-MEL-28
[11] = test system: EKVX
[12] = test system: T47D
[13] = test system: Malme-3M
[14] = test system: PC-3
[15] = test system: HCC 2998
[16] = test system: BT-549
[17] = test system: SK-OV-3
[18] = test system: SN12C
[19] = test system: COLO 205
[20] = test system: SF-295
[21] = test system: KM12
[22] = test system: HCT-116
[23] = test system: SNB-19
[24] = test system: MOLT-4
[25] = test system: NCI/ADR-RES
[26] = test system: SW-620
[27] = test system: RXF 393
[28] = test system: OVCAR-3
[29] = test system: U-251
[30] = test system: NCI-H460
[31] = test system: MCF7
[32] = test system: NCI-H226
[33] = test system: HCT-15
[34] = test system: K562
[35] = test system: OVCAR-4
[36] = test system: Hs-578T
[37] = test system: NCI-H23
[38] = test system: M14
[39] = test system: A549
[40] = test system: OVCAR-8
[41] = test system: CCRF-CEM
[42] = test system: ACHN
[43] = test system: 786-0
[44] = test system: UO-31
[45] = test system: SNB-75
[46] = test system: RPMI-8226
[47] = test system: OVCAR-5
[48] = test system: MDA-MB-231
[49] = test system: UACC-62
[50] = test system: SK-MEL-2
[51] = test system: SR
[52] = test system: TK-10
[53] = test system: DU-145
[54] = test system: IGROV-1
[55] = test system: SK-MEL-5
[56] = test system: NCI-H522
[57] = test system: HL-60
[58] = test system: HOP-92

COc1cccc(/C=N/n2c(C)n[nH]c2=O)c1
GI50 [1]: 25.5 µM (inactive) | GI50 [2]: 80.7 µM (inactive) | GI50 [3]: > 100 µM (inactive) | GI50 [4]: > 100 µM (inactive) | GI50 [5]: > 100 µM (inactive) | GI50 [6]: 60.5 µM (inactive) | GI50 [7]: > 100 µM (inactive) | GI50 [8]: > 100 µM (inactive) | GI50 [9]: > 100 µM (inactive) | GI50 [10]: > 100 µM (inactive) | GI50 [11]: 32 µM (inactive) | GI50 [12]: > 100 µM (inactive) | GI50 [13]: > 100 µM (inactive) | GI50 [14]: > 100 µM (inactive) | GI50 [15]: > 100 µM (inactive) | GI50 [16]: 92.9 µM (inactive) | GI50 [17]: > 100 µM (inactive) | GI50 [18]: > 100 µM (inactive) | GI50 [19]: > 100 µM (inactive) | GI50 [20]: > 100 µM (inactive) | GI50 [21]: > 100 µM (inactive) | GI50 [22]: > 100 µM (inactive) | GI50 [23]: > 100 µM (inactive) | GI50 [24]: > 100 µM (inactive) | GI50 [25]: > 100 µM (inactive) | GI50 [26]: > 100 µM (inactive) | GI50 [27]: 18.8 µM (inactive) | GI50 [28]: 25.9 µM (inactive) | GI50 [29]: > 100 µM (inactive) | GI50 [30]: > 100 µM (inactive) | GI50 [31]: > 100 µM (inactive) | GI50 [32]: 95.1 µM (inactive) | GI50 [33]: > 100 µM | GI50 [34]: > 100 µM (inactive) | GI50 [35]: > 100 µM (inactive) | GI50 [36]: 16.8 µM (inactive) | GI50 [37]: > 100 µM (inactive) | GI50 [38]: > 100 µM (inactive) | GI50 [39]: > 100 µM (inactive) | GI50 [40]: > 100 µM (inactive) | GI50 [41]: > 100 µM (inactive) | GI50 [42]: > 100 µM (inactive) | GI50 [43]: > 100 µM (inactive) | GI50 [44]: > 100 µM (inactive) | GI50 [45]: 58.7 µM (inactive) | GI50 [46]: > 100 µM (inactive) | GI50 [47]: > 100 µM (inactive) | GI50 [48]: > 100 µM (inactive) | GI50 [49]: 69.3 µM (inactive) | GI50 [50]: > 100 µM (inactive)

O=C1C(Br)=C(c2ccccc2)O/C1=C/C(=O)c1ccc(Br)cc1
GI50 [1]: > 100 µM (inactive) | GI50 [2]: > 100 µM (inactive) | GI50 [3]: 36.1 µM (inactive) | GI50 [4]: 15.5 µM (inactive) | GI50 [5]: 53.1 µM (inactive) | GI50 [6]: 19 µM (inactive) | GI50 [51]: 27.5 µM (inactive) | GI50 [7]: 42.1 µM (inactive) | GI50 [8]: > 100 µM (inactive) | GI50 [10]: 51.3 µM (inactive) | GI50 [11]: > 100 µM (inactive) | GI50 [12]: 32.9 µM (inactive) | GI50 [13]: 58.2 µM (inactive) | GI50 [14]: 14.2 µM (inactive) | GI50 [52]: 37.3 µM (inactive) | GI50 [15]: > 100 µM (inactive) | GI50 [16]: 5.38 µM (inactive) | GI50 [18]: 8.75 µM (inactive) | GI50 [19]: > 100 µM (inactive) | GI50 [53]: > 100 µM (inactive) | GI50 [54]: 54.7 µM (inactive) | GI50 [21]: > 100 µM (inactive) | GI50 [22]: 39.4 µM (inactive) | GI50 [23]: > 100 µM (inactive) | GI50 [24]: 31.6 µM (inactive) | GI50 [26]: 23.5 µM (inactive) | GI50 [27]: 17.7 µM (inactive) | GI50 [28]: 83.2 µM (inactive) | GI50 [29]: 30.8 µM (inactive) | GI50 [30]: > 100 µM (inactive) | GI50 [31]: 36.7 µM (inactive) | GI50 [32]: > 100 µM (inactive) | GI50 [33]: 89.9 µM | GI50 [55]: 52.8 µM (inactive) | GI50 [34]: 25.6 µM (inactive) | GI50 [35]: 66.7 µM (inactive) | GI50 [36]: 50 µM (inactive) | GI50 [37]: > 100 µM (inactive) | GI50 [38]: > 100 µM (inactive) | GI50 [56]: 16.9 µM (inactive) | GI50 [40]: 27 µM (inactive) | GI50 [41]: 26.3 µM (inactive) | GI50 [42]: 38.5 µM (inactive) | GI50 [57]: 13 µM (inactive) | GI50 [43]: 18.4 µM (inactive) | GI50 [58]: 49.1 µM (inactive) | GI50 [44]: 28.8 µM (inactive) | GI50 [45]: > 100 µM (inactive) | GI50 [46]: 19.1 µM (inactive) | GI50 [47]: > 100 µM (inactive) | GI50 [48]: 34.8 µM (inactive) | GI50 [49]: 23.9 µM (inactive)

— ChEMBL document CHEMBL1201862, “PubChem BioAssay data set” (2004)
